Type in all cases: biochemical
Assay [1] deals with T1, recombinant human MAO-B (monoamine oxidase-B) (Homo sapiens, UniProt P27338).
T1 construct: purchased Sigma-Aldrich
T1 sequence (P27338 1-520): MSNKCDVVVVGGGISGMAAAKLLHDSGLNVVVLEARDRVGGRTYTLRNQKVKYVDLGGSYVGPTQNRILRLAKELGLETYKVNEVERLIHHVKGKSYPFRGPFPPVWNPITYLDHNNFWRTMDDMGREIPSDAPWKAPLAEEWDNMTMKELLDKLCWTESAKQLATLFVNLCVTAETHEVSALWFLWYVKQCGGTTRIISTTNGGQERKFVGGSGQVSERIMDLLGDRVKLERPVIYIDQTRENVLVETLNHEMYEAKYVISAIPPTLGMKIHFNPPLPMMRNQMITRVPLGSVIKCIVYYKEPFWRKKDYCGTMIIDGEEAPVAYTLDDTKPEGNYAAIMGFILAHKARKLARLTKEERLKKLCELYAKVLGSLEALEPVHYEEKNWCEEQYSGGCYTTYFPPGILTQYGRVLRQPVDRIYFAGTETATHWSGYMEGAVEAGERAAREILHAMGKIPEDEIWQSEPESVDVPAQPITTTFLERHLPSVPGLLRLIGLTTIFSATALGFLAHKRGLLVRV
Nature of the assay: Activity on recombinant human MAO-B, method similar to VAP-1 assay, 1 mM benzylamine substrate. The settings on record: read-out: Inhibitory Activity (IC50, nM) MAO-B. In short, it runs like this:
(§1)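 Amplex Red/HRP-coupled H2O2 fluorescence assay run as for VAP-1: enzyme in 50 mM sodium phosphate pH 7.4 preincubated with compound 30 min at 37 °C, then substrate (putrescine for DAO, benzylamine for MAO-B, tyramine for MAO-A) added with 200 uM Amplex Red, 1 U/mL HRP. Signal rate over 1-2 h; IC50 from 4-parameter logistic fit.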

Assay [2] addresses T2, recombinant human DAO (diamine oxidase) (Homo sapiens, UniProt P19801).
T2 construct: purchased R&D systems
T2 sequence (P19801 20-751): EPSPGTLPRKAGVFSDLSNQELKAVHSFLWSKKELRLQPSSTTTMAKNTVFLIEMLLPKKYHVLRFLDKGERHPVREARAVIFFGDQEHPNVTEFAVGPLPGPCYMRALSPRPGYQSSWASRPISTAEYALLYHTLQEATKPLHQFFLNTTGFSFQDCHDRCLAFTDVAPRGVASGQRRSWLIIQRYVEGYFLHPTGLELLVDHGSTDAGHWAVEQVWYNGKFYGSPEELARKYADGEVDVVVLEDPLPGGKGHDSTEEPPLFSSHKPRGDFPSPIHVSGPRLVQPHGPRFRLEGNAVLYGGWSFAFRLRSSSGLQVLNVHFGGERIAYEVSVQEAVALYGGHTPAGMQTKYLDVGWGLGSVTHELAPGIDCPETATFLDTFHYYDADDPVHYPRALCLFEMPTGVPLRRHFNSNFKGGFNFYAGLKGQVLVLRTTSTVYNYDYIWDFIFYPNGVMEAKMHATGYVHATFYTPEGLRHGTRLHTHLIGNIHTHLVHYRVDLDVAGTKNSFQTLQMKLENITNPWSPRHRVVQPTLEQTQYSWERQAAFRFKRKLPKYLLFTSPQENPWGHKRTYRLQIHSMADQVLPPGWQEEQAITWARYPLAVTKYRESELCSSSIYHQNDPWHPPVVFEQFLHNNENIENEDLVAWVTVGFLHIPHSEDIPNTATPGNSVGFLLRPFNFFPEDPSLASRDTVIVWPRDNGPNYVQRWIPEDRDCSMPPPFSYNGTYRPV
The assay can be described thus: Activity on recombinant human DAO, method similar to VAP-1 assay, 1 mM putrescine substrate. The settings on record: read-out: Inhibitory Activity (IC50, nM) DAO. In short, it runs like this:
as §1

Assay [3] deals with T3, recombinant human VAP-1 (Homo sapiens, UniProt Q16853).
T3 construct: purchased R&D systems
T3 sequence (Q16853 1-763): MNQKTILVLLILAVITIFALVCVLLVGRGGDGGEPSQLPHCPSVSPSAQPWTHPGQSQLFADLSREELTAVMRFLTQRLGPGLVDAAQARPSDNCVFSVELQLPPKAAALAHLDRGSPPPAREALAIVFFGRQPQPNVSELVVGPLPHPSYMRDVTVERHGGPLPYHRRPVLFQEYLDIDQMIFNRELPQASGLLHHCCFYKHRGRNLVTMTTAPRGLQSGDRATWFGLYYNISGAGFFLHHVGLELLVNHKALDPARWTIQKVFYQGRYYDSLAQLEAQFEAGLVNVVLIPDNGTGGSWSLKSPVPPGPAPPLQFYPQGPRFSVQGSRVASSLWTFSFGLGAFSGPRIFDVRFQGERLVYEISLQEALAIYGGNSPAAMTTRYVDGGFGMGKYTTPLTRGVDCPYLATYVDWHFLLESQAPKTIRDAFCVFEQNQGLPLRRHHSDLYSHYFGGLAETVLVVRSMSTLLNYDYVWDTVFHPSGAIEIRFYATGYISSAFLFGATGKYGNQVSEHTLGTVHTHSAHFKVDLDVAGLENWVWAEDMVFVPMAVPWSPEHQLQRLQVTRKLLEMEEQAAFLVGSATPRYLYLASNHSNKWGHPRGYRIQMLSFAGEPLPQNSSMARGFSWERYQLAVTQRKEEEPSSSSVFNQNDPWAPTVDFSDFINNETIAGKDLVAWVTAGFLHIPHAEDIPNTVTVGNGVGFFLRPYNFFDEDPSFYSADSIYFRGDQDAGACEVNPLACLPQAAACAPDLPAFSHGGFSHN
Nature of the assay: Activity on recombinant human VAP-1, HRP-coupled Amplex Red hydrogen peroxide assay, benzylamine substrate. The settings on record: 30 min incubation at 37° C., 1 mM benzylamine, read-out: Inhibitory Activity (IC50, nM) human VAP-1. In short, it runs like this:
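Recombinant human VAP-1 in 50 mM sodium phosphate pH 7.4 preincubated with compound for 30 min at 37 °C, then 1 mM benzylamine, 200 uM Amplex Red and 1 U/mL HRP added. Resorufin fluorescence (ex 544/em 590 nm) followed over 1-2 h; % signal-rate decrease vs DMSO control, 8-point 4-parameter fit for IC50.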

Assay [4] has as its target T4, recombinant human MAO-A (monoamine oxidase-A) (Homo sapiens, UniProt P21397).
T4 construct: purchased Sigma-Aldrich
T4 sequence (P21397 1-527): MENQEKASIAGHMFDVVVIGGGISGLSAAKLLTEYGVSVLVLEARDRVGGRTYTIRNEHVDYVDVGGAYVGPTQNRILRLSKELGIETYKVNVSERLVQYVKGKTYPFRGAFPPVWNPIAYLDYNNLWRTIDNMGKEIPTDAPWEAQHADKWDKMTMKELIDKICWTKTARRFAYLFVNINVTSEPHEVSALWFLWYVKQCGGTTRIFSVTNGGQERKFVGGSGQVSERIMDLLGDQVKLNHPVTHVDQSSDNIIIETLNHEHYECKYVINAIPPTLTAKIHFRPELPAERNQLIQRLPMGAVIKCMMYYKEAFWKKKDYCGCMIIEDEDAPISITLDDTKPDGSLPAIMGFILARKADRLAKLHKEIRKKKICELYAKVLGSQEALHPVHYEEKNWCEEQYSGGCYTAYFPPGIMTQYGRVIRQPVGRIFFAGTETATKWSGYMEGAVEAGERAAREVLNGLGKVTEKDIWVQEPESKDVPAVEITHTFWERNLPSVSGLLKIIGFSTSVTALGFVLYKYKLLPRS
The assay can be described thus: Activity on recombinant human MAO-A, method similar to VAP-1 assay, 0.5 mM tyramine substrate. The settings on record: read-out: Inhibitory Activity (IC50, nM) MAO-A. In short, it runs like this:
as §1

IC50 data for ten compounds are collected here from US11091479B2, “Triazolopyridin-3-ones or their salts and pharmaceutical compositions comprising the same” (YUHAN CORPORATION, priority 2018, dated 2021).

Where a name gives a salt, the structure may show the parent alone.

For orientation: IC50 means the concentration that inhibits the measured activity by half.

On to `NC/C(=C\F)Cn1nc2cc(-c3ccc(-c4noc(C5CC5)n4)cc3)ccn2c1=O` [Example 29, 2-[(2E)-2-(aminomethyl)-3-fluoroprop-2-en-1-yl]-7-[4-(5-cyclopropyl-1,2,4-oxadiazol-3-yl)phenyl][1,2,4]triazolo[4,3-a]pyridin-3(2H)-one hydrochloride], for which the IC50 came to 380 nM in assay [1], 4 nM in assay [2], 0.4 nM in assay [3] and 44000 nM in assay [4].

In the case of `NC/C(=C\F)Cn1nc2ccc(-c3ccc4sc(N)nc4c3)cn2c1=O` [Example 14, 6-(2-amino-1,3-benzothiazol-5-yl)-2-[(2E)-2-(aminomethyl)-3-fluoroprop-2-en-1-yl][1,2,4]triazolo[4,3-a]pyridin-3(2H)-one trifluoroacetate], the IC50 is 69 nM in assay [1], less than 100 nM in assay [2], 6.2 nM in assay [3] and greater than 100000 nM in assay [4].

Consider `NC/C(=C\F)Cn1nc2cc(-c3ccc4nn[nH]c4c3)ccn2c1=O` [Example 39, 2-[(2E)-2-(aminomethyl)-3-fluoroprop-2-en-1-yl]-7-(1H-benzotriazol-6-yl)[1,2,4]triazolo[4,3-a]pyridin-3(2H)-one hydrochloride], for which the IC50 in assay [1] was determined as 1100 nM; in assay [2], 0.2 nM; in assay [3], 0.1 nM; in assay [4], 96000 nM.

For the compound `NC/C(=C\F)Cn1nc2ccc(-c3ccc(-c4ccon4)cc3)cn2c1=O` [Example 7, 2-[(2E)-2-(aminomethyl)-3-fluoroprop-2-en-1-yl]-6-[4-(1,2-oxazol-3-yl)phenyl][1,2,4]triazolo[4,3-a]pyridin-3(2H)-one hydrochloride], the IC50 in assay [1] was 25 nM; in assay [2] it was 0.2 nM; in assay [3], 2.3 nM; in assay [4], greater than 100000 nM.

Consider `NC/C(=C\F)Cn1nc2ccc(-c3cccc(-c4nc[nH]n4)c3)cn2c1=O` [Example 6, 2-[(2E)-2-(aminomethyl)-3-fluoroprop-2-en-1-yl]-6-[3-(1H-1,2,4-triazol-3-yl)phenyl][1,2,4]triazolo[4,3-a]pyridin-3(2H)-one], for which the IC50 in assay [1] was 73 nM; in assay [2] it was less than 100 nM; in assay [3], 2.1 nM; in assay [4], greater than 100000 nM.

In the case of `CC(=O)Nc1nc2cc(-c3ccc4nn(C/C(=C/F)CN)c(=O)n4c3)ccc2s1` [Example 15, N-[5-[2-[(2E)-2-(aminomethyl)-3-fluoroprop-2-en-1-yl]-3-oxo-2,3-dihydro[1,2,4]triazolo[4,3-a]pyridin-6-yl]-1,3-benzothiazol-2-yl]acetamide trifluoroacetate], the IC50 in assay [1] was 597 nM; in assay [2] it was less than 100 nM; in assay [3], 9.3 nM; in assay [4], greater than 100000 nM.

Take `CS(=O)(=O)c1cccc(-c2ccn3c(=O)n(C/C(=C/F)CN)nc3c2)c1` [Example 22, 2-[(2E)-2-(aminomethyl)-3-fluoroprop-2-en-1-yl]-7-[3-(methylsulfonyl)phenyl][1,2,4]triazolo[4,3-a]pyridin-3(2H)-one hydrochloride]: the IC50 in assay [1] was 180 nM; in assay [2], 12 nM; in assay [3] it was 0.7 nM; in assay [4] it was greater than 100000 nM.

With `NC/C(=C\F)Cn1nc2cc(C3=CCNCC3)ccn2c1=O` [Example 34, 2-[(2E)-2-(aminomethyl)-3-fluoroprop-2-en-1-yl]-7-(1,2,3,6-tetrahydropyridin-4-yl)[1,2,4]triazolo[4,3-a]pyridin-3(2H)-one dihydrochloride], the IC50 in assay [1] was greater than 100000 nM; in assay [2] it was 1 nM; in assay [3] it was 2 nM; in assay [4], greater than 100000 nM.

On to `NCC(Cn1nc2cc(C#Cc3ccc4c(c3)CCC(=O)N4)ccn2c1=O)=C(F)F` [Example 62, 6-[2-[2-[2-(aminomethyl)-3,3-difluoro-allyl]-3-oxo-[1,2,4]triazolo[4,3-a]pyridin-7-yl]ethynyl]-3,4-dihydro-1H-quinolin-2-one trifluoroacetate], for which the IC50 was 14000 nM in assay [1], 150 nM in assay [2], 0.2 nM in assay [3] and greater than 100000 nM in assay [4].

In the case of `NC/C(=C\F)Cn1nc2ccc(-c3ccc(N4CCOCC4)nc3)cn2c1=O` [Example 10, 2-[(2E)-2-(aminomethyl)-3-fluoroprop-2-en-1-yl]-6-[6-(morpholin-4-yl)pyridin-3-yl][1,2,4]triazolo[4,3-a]pyridin-3(2H)-one trifluoroacetate], the IC50 in assay [1] was 64 nM; in assay [2] it was less than 100 nM; in assay [3] it was 6.6 nM; in assay [4], greater than 100000 nM.
